From the supplement of paper PMC5908809

Tests used:
SNK-6 (IL-2 2.5 ng/mL) [1] = assay: percent inhibition of viability; higher = more inhibition; settings: 72 h
YT (IL-2 2.5 ng/mL) [2] = assay: as above; settings: 72 h
[3] = tested on: normal primary NK cells, pool 1 (3 donors) (IL-2 2.5 ng/mL); assay: as above; settings: 72 h
[4] = tested on: normal primary NK cells, pool 1 (3 donors), resting (IL-2 0 ng/mL); assay: as above; settings: 72 h
[5] = tested on: normal primary NK cells, pool 2 (3 donors) (IL-2 2.5 ng/mL); assay: as above; settings: 72 h
[6] = tested on: normal primary NK cells, pool 3 (3 donors) (IL-2 2.5 ng/mL); assay: as above; settings: 72 h
[7] = tested on: normal NK cells expanded with K562-aAPC; assay: drug sensitivity score (DSS) (DSS units); higher = more sensitive; extreme values may be limits of the assay; settings: 72 h; IL-2 2.5 ng/mL
Description: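 Drug sensitivity and resistance testing on K562-aAPC-expanded normal NK cells: 5 concentrations (10-fold steps over a 10,000-fold range), 72 h at 37 °C, viability by CellTiter-Glo normalised to DMSO and benzethonium chloride controls; DSS from the fitted curve.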

DERL-7 (IL-2 2.5 ng/mL) = assay: as above; settings: 72 h
IMC-1 (IL-2 20 ng/mL) = assay: as above; settings: 72 h
KAI3 (IL-2 2.5 ng/mL) = assay: as above; settings: 72 h
KHYG-1 (IL-2 2.5 ng/mL) = assay: as above; settings: 72 h
NK-92 (IL-2 2.5 ng/mL) = assay: as above; settings: 72 h
NK-YS (IL-2 2.5 ng/mL) = assay: as above; settings: 72 h
NKL (IL-2 2.5 ng/mL) = assay: as above; settings: 72 h
SNK-6 (IL-2 2.5 ng/mL) [8] = assay: as above; settings: 72 h
YT (IL-2 2.5 ng/mL) [9] = assay: as above; settings: 72 h
[10] = tested on: normal primary NK cells, pool 1 (3 donors) (IL-2 2.5 ng/mL); assay: as above; settings: 72 h
[11] = tested on: normal primary NK cells, pool 1 (3 donors), resting (IL-2 0 ng/mL); assay: as above; settings: 72 h
[12] = tested on: normal primary NK cells, pool 2 (3 donors) (IL-2 2.5 ng/mL); assay: as above; settings: 72 h
[13] = tested on: normal primary NK cells, pool 3 (3 donors) (IL-2 2.5 ng/mL); assay: as above; settings: 72 h
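Throughout, for percent inhibition of viability: normalised to DMSO-only wells as negative and benzethonium chloride as positive control.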

C=C(c1ccc(C(=O)O)cc1)c1cc2c(cc1C)C(C)(C)CCC2(C)C [Bexarotene] (max concentration tested 10000 nM)
percent inhibition of viability [%]
Settings | SNK-6 (IL-2 2.5 ng/mL) [1] | YT (IL-2 2.5 ng/mL) [2] | [3] | [4] | [5] | [6]
1 nM | – | 1.74 | 2.65 | 6.01 | -3.26 | -2.37
10 nM | – | -2.56 | 3.77 | -4.44 | -9.74 | -1.77
100 nM | 10 | 5.09 | 5.07 | -0.24 | -11.1 | 4
1000 nM | 4.19 | 22.2 | -0.78 | 2.22 | -7.66 | -8.07
10000 nM | 25.4 | 38.4 | 2.54 | 15.6 | 2.35 | -0.96

Settings | drug sensitivity score
DERL-7 (IL-2 2.5 ng/mL) | 0
IMC-1 (IL-2 20 ng/mL) | 0.08
KAI3 (IL-2 2.5 ng/mL) | 2.32
KHYG-1 (IL-2 2.5 ng/mL) | 11.4
NK-92 (IL-2 2.5 ng/mL) | 9.12
NK-YS (IL-2 2.5 ng/mL) | 6.37
NKL (IL-2 2.5 ng/mL) | 15.3
SNK-6 (IL-2 2.5 ng/mL) [8] | 1.61
YT (IL-2 2.5 ng/mL) [9] | 4.39
[7] | 0
[10] | 0
[11] | 0.5
[12] | 0
[13] | 0
